Results on 1 compound are retold here after patent US20240115705A1, “Regulation of Butyrophilin subfamily 3 member A1 (BTN3A1, CD277)” (The J. Gladstone Institutes, a testamentary trust …, priority 2021, published 2024).

Assay type in all cases: cell-based, human
The test system of one assay is BTN3A. As to the kind of experiment: Inhibitor dose response, surface BTN3A by flow cytometry in WT Daudi-Cas9 cells. Particulars: 72 hours, complete RPMI, vs vehicle. How it is done: Daudi-Cas9 cells (180 μL) were seeded at 275,000 cells/mL in cRPMI in round-bottom 96-well plates. Twenty μL of zoledronate, rotenone (MedChemExpress), oligomycin A (Neta Scientific), FCCP (MedChemExpress), antimycin A (Neta Scientific), AICAR (Sigma), 2-DG (Sigma), Compound 991 (Selleck Chemical), A-769662 (Sigma), ethanol (vehicle), or DMSO (vehicle, at dilutions matching the treatment) at various concentrations were added to the cells. Plate edge wells were filled with 200 μL of sterile water or PBS. The cells were grown at 37° C. for 72 hours, and stained with APC-conjugated anti-human CD277 antibody (clone BT3.1, 1:50 dilution)(Miltenyi Biotec) and 7-AAD (1:150 dilution) (Tonbo). The cells were then analyzed on the Attune NxT flow cytometer.
A general note: Flow cytometry measures light scatter and fluorescence of single cells or particles in a stream.

In another assay the test system is BTN3A1 transcripts. Nature of the assay: RT-qPCR of drug-treated Daudi-Cas9 cells, BTN3A1. Particulars: 80 PM, 72 hours, normalized to ACTB and DMSO. How it is done:
(§1) For measurement on Daudi-Cas9 KOs, samples were collected at 13 days after lentiviral transduction. For measurements on drug-treated WT Daudi-Cas9 cells, 180 μL of Daudi-Cas9 cells were seeded in a round-bottom 96-well plate at 275,000 cells/mL. All surrounding wells were filled with 200 μL of sterile PBS or water. With four replicates per treatment, cells were treated with 20 μL of AICAR (final concentration 0.5 mM), Compound 991 (final concentration 80 PM), DMSO, or water. The cells were collected for RT-qPCR measurements after 72 hours of incubation. RNA was extracted from approximately 70,000 cells per sample using the Quick-RNA 96 Kit (Zymo Research) or Direct-zol RNA Microprep Kit (Zymo) according to the manufacturer's protocol without the optional on-column DNase I treatment. According to the manufacturer's protocol, 1 μL of RNA was immediately processed using the Maxima First Strand cDNA Synthesis Kit for RT-qPCR with the dsDNase treatment (Thermo Fisher). Two cDNA synthesis reactions, in addition to a reverse transcriptase minus (RT−) negative control reaction, were performed for each biological replicate. […] Ct values across the three technical replicates for each sample were assessed for significant outliers resulting from technical failures (any samples in triplicate with a standard deviation above 0.2 were assessed) and subsequently averaged. […]
(Real-time PCR tracks product formation cycle by cycle.)

The next assay concerns BTN3A2 transcripts. As to the kind of experiment: RT-qPCR of drug-treated Daudi-Cas9 cells, BTN3A2. Particulars: 80 PM, 72 hours, normalized to ACTB and DMSO. How it is done: as §1
For a further assay, the system named is Daudi-Cas9 cells. Nature of the assay: γδ TCR tetramer staining (G115 Vγ9Vδ2 TCR clone) of Daudi-Cas9 cells. As to conditions: WT Daudi-Cas9 cells, 80 μM, 72 hours. From the text:
The G115 Vγ9Vδ2 TCR clone tetramer was generated using the following methods. The G115 γ-[…] chain sequence (Davodeau et al. J. Immunol. 151, 1214-1223 (1993)) was cloned into the pAcGP67A vector with a C-terminal acidic zipper, and the G115 δ-chain sequence (Davodeau et al. (1993)) as cloned into the pAcGP67A vector with a C-terminal AviTag followed by a basic zipper. Zippers stabilized the TCR complex. The TCR was expressed in the High Five baculovirus insect-cell expression system and purified via affinity chromatography over a Ni-NTA column. TCRs were biotinylated and biotinylation was confirmed using a TrapAvidin SDS-PAGE assay. The G115 TCR was then further purified using size-exclusion chromatography (Superdex200 100/300 GL column, GE Healthcare) and purity was confirmed via SDS-PAGE. Tetramers were generated by incubating biotinylated TCR with streptavidin conjugated to the PE fluorophore.
Daudi-Cas9 KO cells were analyzed 13 and 14 days post-lentiviral transduction. WT Daudi-Cas9 cells were analyzed after being cultured for 72 hours with 0.5 mM AICAR, 80 μM Compound 991, DMSO (vehicle control at the concentration matching Compound 991), or nothing. […] Stained cells were analyzed on the Attune NxT flow cytometer.

The next assay has as its system BTN2A1 transcripts. As to the kind of experiment: RT-qPCR of drug-treated Daudi-Cas9 cells, BTN2A1. Particulars: 80 PM, 72 hours, normalized to ACTB and DMSO. How it is done:
as §1

Turning to `Cc1ccc(Oc2nc3cc(-c4ccc5c(ccn5C)c4)c(Cl)cc3[nH]2)cc1C(=O)O` [Compound 991], in the assay with BTN3A, the “surface BTN3A (MFI)” value was “Upregulation of surface BTN3A”. Also, the “BTN3A1 transcript level by qPCR” value with BTN3A1 transcripts is recorded as “transcriptionally upregulated”. In addition, the “BTN3A2 transcript level by qPCR” value with BTN3A2 transcripts is “transcriptionally upregulated”. For the same compound, the “staining with G115 Vγ9Vδ2 TCR tetramer compared to vehicle control-treated cells” value in the assay on Daudi-Cas9 cells was “about five times higher”. Further, in the assay with BTN2A1 transcripts, the “BTN2A1 transcript level by qPCR” value was “transcriptionally upregulated”.
